Data as given in US6921775B2, “Methods for modulating brain damage” (Children's Medical Center Corporation, priority 2001, dated 2005).

Legend:
[1] = tested on: AMPA receptors in cerebral white matter; assay: Intracerebral AMPA injection white matter injury; format: in vivo; settings: P7 rats, 5 nmol AMPA plus 5 nmol MK-801, systemic NBQX post-treatment, t test p<0.005
Experimental: The methods used in this example are described in Follett et al. (2000) J. Neurosci. 20:9235-9241, incorporated by reference herein.
NBQX attenuation of the selective white matter injury after hypoxia/ischemia implicated GluR-mediated toxicity as an important mechanism of injury in immature OLs. To confirm a relationship between the activation of AMPA receptors in cerebral white matter and the vulnerability to injury, AMPA was injected directly into immature white matter. […] Minimal to no injury was present in vehicle-injected controls (M K801 alone; n=7) at the same age (t test, p<0.001).
To determine whether AMPA toxicity was age dependent, lesion size after intracerebral AMPA injections at P4, P7, and P11 was compared.

[2] = tested on: OL precursor cells; assay: Kainate-induced excitotoxicity in OL precursor cultures (trypan blue cell viability); format: cell-based, rat; settings: 300 μM kainate; for concentration giving significant reduction of kainate-induced cell death: cell survival assessed 24 hr later
Experimental: Primary oligodendrocyte precursor cells were isolated from mixed glial cultures of the forebrains of newborn Sprague-Dawley rats using a selective detachment procedure as described in detail elsewhere (McCarthy and de Vellis, 1980; Back et al., 1998), and further purified by differential adhesion (Back et al., 1998). Precursor cells were maintained in a chemically-defined medium (CDM) supplemented with recombinant human platelet derived growth factor-AA (PDGF, 10 ng/ml) and basic fibroblast growth factor (bFGF, 10 ng/ml). The CDM was Dulbecco Modified Eagle's Medium (DMEM) containing D-glucose (25 mM), L-glutamine (4 mM), sodium pyruvate (1 mM), human apo-transferrin (50 μg/ml), bovine pancreatic insulin (5 μg/ml), sodium selenium (30 nM), hydrocortisone (10 nM), D-biotin (10 nM), and bovine serum albumin (BSA, 1 mg/ml). All chemicals were from Sigma. Precursor cells were maintained in the presence of growth factors (PDGF+bFGF) by refeeding with fresh medium every 48 hr for 7 days, to promote cell proliferation and prevent differentiation (Bogler et al., 1990). Experiments were performed with cultures maintained in CDM without the supplemental growth factors. These cultures were routinely characterized by immunochemical detection of cell-specific markers as described before (Back et al., 1998). Cultures at the beginning of experiments usually consisted of approximately 90% A2B5^+ oligodendrocyte precursors and less than 5% glial fibrillary acidic protein (GFAP)-positive astrocytes. Cells were plated on poly-DL-ornithine-coated 24-well plates for cell viability assays and on coated glass coverslips for immunocytochemistry, proliferation studies, and lineage analysis. Kainic acid (Sigma-RBI) were first dissolved in 0.1N HCl, and cyclothiazide (Sigma) in 0.1N NaOH, then added to culture medium to the desired final concentration. The pH of the culture media was maintained at 7.4. Topiramate (RWJ Pharmaceutical Research Institute) and NBQX (Sigma-RBI) were directly dissolved in culture medium and applied 10 min prior to exposure of the cells to kainate or oxygen-glucose deprivation (OGD). Following exposure to kainate or OGD for 24 hr, cell death was quantitatively assessed using the trypan blue exclusion method (Perry et al., 1997). Cells in 5-7 adjacent fields (×200) per well were counted to determine cell survival. At least 1000 cells per condition were counted in control cultures. The mean±SEM values for each experimental group were obtained from at least three separate experiments, and each was performed in triplicate. […] OGD has been previously shown to cause non-NMDA receptor-mediated ischemic cell death in a similar culture model (Fern and Moller, 2000). […] Cell survival was assessed 24 hr later.

Row | SMILES | white matter injury (lesion size) after intracerebral AMPA [1] | protection against kainate-induced cell death at 50 μM ([2]; 50 μM NBQX, 24 hr) | concentration giving significant reduction of kainate-induced cell death [2] [µM] | cell survival ([2]; topiramate 50-100 μM, 24 hr)
1 | NS(=O)(=O)c1cccc2c1c([N+](=O)[O-])cc1nc(O)c(O)nc12 [NBQX, 2,3-Dioxo-6-nitro-1,2,3,4-tetrahydrobenzo[f]quinoxaline-7-sulphonamide] | significantly attenuated white matter injury | fully protective | ≥ 10 | 
2 | CC1(C)O[C@@H]2[C@@H](CO[C@@]3(COS(N)(=O)=O)OC(C)(C)O[C@@H]23)O1 [topiramate] |  |  | ≥ 30 | approximately 70%
